Reference: the supplement of paper PMC10627819

What was measured:
[1] = test system: B. subtilis 168; experiment: fitness (endpoint OD595 vs no drug) (fraction); higher = more growth
Summary of the method: (§1)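 In 384-well plates at 37 °C, cultures began at OD595 0.01 in 30 µl, with 55 µl used for S. pneumoniae. OD595 readings every 30 min for 14 h were corrected by the first reading. Fitness divides the stationary-phase transition optical density by the robust mean of no-drug control wells. The result is capped at 1.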

[2] = test system: S. pneumoniae D39V; experiment: as above
Summary of the method: as §1

[3] = test system: B. subtilis 168; experiment: Bliss interaction score (quartile over a dose matrix) (fitness difference); higher = more antagonism (negative = synergy)
Summary of the method: (§2)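 Growth was read as OD595 when cultures entered stationary phase, and each value was divided by the plate's robust no-drug mean and capped at 1. This normalised ratio is the fitness value, and fitness for each single drug came from the combination data. The Bliss score subtracts the expected fitness, taken as the product, from the observed fitness and is given as quartiles across technical, biological and donor/recipient replicates.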

[4] = test system: S. aureus Newman; experiment: as above
Summary of the method: as §2

[5] = test system: S. aureus DSM 20231; experiment: as above
Summary of the method: as §2

[6] = test system: S. pneumoniae D39V; experiment: as above
Summary of the method: as §2
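For Bliss interaction score (quartile over a dose matrix) in this document: first quartile when negative (synergy) and third quartile when positive (antagonism).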
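For fitness (endpoint OD595 vs no drug) in this document: OD595 on entry to stationary phase over no-drug wells; at most 1.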

C[C@H]1COc2c(N3CCN(C)CC3)c(F)cc3c(=O)c(C(=O)O)cn1c23 [Levofloxacin] + Cc1ncc([N+](=O)[O-])n1CCO [Metronidazole]
fitness, [1], one replicate
Conditions | first compound 0.001 µg/mL | first compound 0.002 µg/mL | first compound 0.0039 µg/mL
partner 0.625 µg/mL | 0.946 | 0.911 | 0.852
partner 1.25 µg/mL | 0.96 | 0.85 | 0.845
partner 2.5 µg/mL | 0.965 | 0.929 | 0.855

Conditions | fitness
[1], first compound 0.0312 µg/mL, partner 0.625 µg/mL | 0.0462
[1], first compound 0.0312 µg/mL, partner 1.25 µg/mL | 0.0567
[1], first compound 0.0312 µg/mL, partner 2.5 µg/mL | 0.0324
[1], first compound 0.0625 µg/mL, partner 0.625 µg/mL | 0.0491
[1], first compound 0.0625 µg/mL, partner 1.25 µg/mL | 0.0521
[1], first compound 0.0625 µg/mL, partner 2.5 µg/mL | 0.0541
[1], first compound 0.125 µg/mL, partner 0.625 µg/mL | 0.0404
[1], first compound 0.125 µg/mL, partner 1.25 µg/mL | 0.0466
[1], first compound 0.125 µg/mL, partner 2.5 µg/mL | 0.0398
[2], first compound 0.1725 µg/mL, partner 1.25 µg/mL | 0.985
[2], first compound 0.1725 µg/mL, partner 2.5 µg/mL | 0.993
[2], first compound 0.1725 µg/mL, partner 5 µg/mL | 0.976
[2], first compound 0.2 µg/mL, partner 1.073 µg/mL | 0.95
[2], first compound 0.2 µg/mL, partner 2.145 µg/mL | 0.91
[2], first compound 0.2 µg/mL, partner 4.29 µg/mL | 0.899
[2], first compound 0.345 µg/mL, partner 1.25 µg/mL | 0.903
[2], first compound 0.345 µg/mL, partner 2.5 µg/mL | 0.92
[2], first compound 0.345 µg/mL, partner 5 µg/mL | 0.931
[2], first compound 0.4 µg/mL, partner 1.073 µg/mL | 0.873
[2], first compound 0.4 µg/mL, partner 2.145 µg/mL | 0.85
[2], first compound 0.4 µg/mL, partner 4.29 µg/mL | 0.819
[2], first compound 0.69 µg/mL, partner 1.25 µg/mL | 0.7
[2], first compound 0.69 µg/mL, partner 2.5 µg/mL | 0.704
[2], first compound 0.69 µg/mL, partner 5 µg/mL | 0.686
[2], first compound 0.8 µg/mL, partner 1.073 µg/mL | 0.765
[2], first compound 0.8 µg/mL, partner 2.145 µg/mL | 0.765
[2], first compound 0.8 µg/mL, partner 4.29 µg/mL | 0.71

Conditions | Bliss interaction score
[3] | 0.0195
[4] | -0.0661
[5] | -0.0575
[6] | 0.121

C[C@H]1COc2c(N3CCN(C)CC3)c(F)cc3c(=O)c(C(=O)O)cn1c23 [Levofloxacin] + Cc1onc(-c2ccccc2)c1C(=O)N[C@@H]1C(=O)N2[C@@H]1SC(C)(C)[C@@H]2C(=O)O [Oxacillin]
fitness, [1], one replicate
Conditions | partner 0.0078 µg/mL | partner 0.0155 µg/mL | partner 0.031 µg/mL | partner 0.075 µg/mL | partner 0.15 µg/mL | partner 0.3 µg/mL
first compound 0.001 µg/mL | 0.942 | 0.965 | 0.932 | – | – | –
first compound 0.002 µg/mL | 0.898 | 0.936 | 0.876 | 0.476 | 0.0412 | 0.0517
first compound 0.0039 µg/mL | 0.832 | 0.849 | 0.741 | 0.416 | 0.038 | 0.0324
first compound 0.0078 µg/mL | – | – | – | 0.592 | 0.0582 | 0.0577

Conditions | fitness
[1], first compound 0.0312 µg/mL, partner 0.002 µg/mL | 0.0448
[1], first compound 0.0312 µg/mL, partner 0.004 µg/mL | 0.0387
[1], first compound 0.0312 µg/mL, partner 0.008 µg/mL | 0.0483
[1], first compound 0.0625 µg/mL, partner 0.002 µg/mL | 0.0429
[1], first compound 0.0625 µg/mL, partner 0.004 µg/mL | 0.0548
[1], first compound 0.0625 µg/mL, partner 0.008 µg/mL | 0.0559
[1], first compound 0.125 µg/mL, partner 0.002 µg/mL | 0.0397
[1], first compound 0.125 µg/mL, partner 0.004 µg/mL | 0.0414
[1], first compound 0.125 µg/mL, partner 0.008 µg/mL | 0.0574
[2], first compound 0.1725 µg/mL, partner 0.01 µg/mL | 0.972
[2], first compound 0.1725 µg/mL, partner 0.02 µg/mL | 0.917
[2], first compound 0.2 µg/mL, partner 0.01 µg/mL | 0.928
[2], first compound 0.2 µg/mL, partner 0.02 µg/mL | 0.898
[2], first compound 0.2 µg/mL, partner 0.04 µg/mL | 0.495
[2], first compound 0.345 µg/mL, partner 0.01 µg/mL | 0.9
[2], first compound 0.345 µg/mL, partner 0.02 µg/mL | 0.894
[2], first compound 0.4 µg/mL, partner 0.01 µg/mL | 0.809
[2], first compound 0.4 µg/mL, partner 0.02 µg/mL | 0.785
[2], first compound 0.4 µg/mL, partner 0.04 µg/mL | 0.402
[2], first compound 0.69 µg/mL, partner 0.01 µg/mL | 0.704
[2], first compound 0.69 µg/mL, partner 0.02 µg/mL | 0.571
[2], first compound 0.8 µg/mL, partner 0.04 µg/mL | 0.24

Conditions | Bliss interaction score
[3] | -0.0169
[4] | 0.0619
[5] | 0.0488
[6] | 0.11

CN(C)C(=O)C(CCN1CCC(O)(c2ccc(Cl)cc2)CC1)(c1ccccc1)c1ccccc1 [Loperamide] + CC1=C\[C@@H](O)CC(=O)Cc2nc(co2)C(=O)N2CCC=C2C(=O)O[C@H](C(C)C)[C@H](C)/C=C/C(=O)NC\C=C\1 [Virginiamycin M1]
Conditions | fitness
[1], first compound 25 µg/mL, partner 0.0625 µg/mL | 0.809
[1], first compound 25 µg/mL, partner 0.125 µg/mL | 0.745
[1], first compound 25 µg/mL, partner 0.25 µg/mL | 0.755
[1], first compound 50 µg/mL, partner 0.0625 µg/mL | 0.0261
[1], first compound 50 µg/mL, partner 0.125 µg/mL | 0.0336
[1], first compound 50 µg/mL, partner 0.25 µg/mL | 0.0356
[1], first compound 100 µg/mL, partner 0.0625 µg/mL | 0.0228
[1], first compound 100 µg/mL, partner 0.125 µg/mL | 0.0378
[1], first compound 100 µg/mL, partner 0.25 µg/mL | 0.0328
[2], first compound 17.14 µg/mL, partner 0.5 µg/mL | ≥ 1
[2], first compound 17.14 µg/mL, partner 1 µg/mL | ≥ 1
[2], first compound 17.14 µg/mL, partner 2 µg/mL | ≥ 1
[2], first compound 20 µg/mL, partner 2 µg/mL | ≥ 1
[2], first compound 34.28 µg/mL, partner 0.5 µg/mL | ≥ 1
[2], first compound 34.28 µg/mL, partner 1 µg/mL | ≥ 1
[2], first compound 34.28 µg/mL, partner 2 µg/mL | ≥ 1
[2], first compound 40 µg/mL, partner 2 µg/mL | ≥ 1

fitness, [2], one replicate
Conditions | partner 0.15 µg/mL | partner 0.3 µg/mL | partner 0.5 µg/mL | partner 1 µg/mL | partner 2 µg/mL
first compound 20 µg/mL | ≥ 1 | 0.999 | ≥ 1 | ≥ 1 | –
first compound 40 µg/mL | ≥ 1 | ≥ 1 | ≥ 1 | ≥ 1 | –
first compound 68.57 µg/mL | – | – | ≥ 1 | ≥ 1 | ≥ 1
first compound 80 µg/mL | ≥ 1 | ≥ 1 | 0.348 | 0.0702 | –

Conditions | Bliss interaction score
[3] | -0.0999
[4] | 0.0415
[5] | -0.211
[6] | 0.0883
